“Also recorded” adds a separate entry of the source.
Legend:
[1] = tested on: S. orientale RILs root growth; test: root growth assay, S. orientale inbred lines; type: in vivo, Sisymbrium orientale; conditions: S. orientale RILs homozygous for IAA2Δ27 vs IAA2 wild-type allele
Protocol: (§1) All root assays were performed on 120 mm square petri dishes with half MS and 1% phytoagar. […] For the mustard root assay, ten seedlings (3 days after germination) of F5 RILs of each phenotype were transferred to an auxin treated or control plate, the root tip of each plant was marked and root growth was evaluated seven days after treatment. For Arabidopsis, sterilized seeds were planted directly on the treated petri dish and incubated at 4° C. for seed […] and moved to the growth chamber after 3 days. T3 homozygous plants of 35::SoIAA2WT, 35::SoIAA2Δ27, the T-DNA insertion line on AtIAA2 and the empty T-DNA from PFGC5941 plasmid as control were used in this study. Twelve plants per construct ware used in total and roots were measured three weeks after the plates were moved to the growth conditions. For all root assays, seeds were gas sterilized for 6 hours using bleach and hydrochloric acid. The plants were grown under controlled conditions of 180 uMol m^−2 light intensity, relative humidity of 60%, 16 hours of day and day/night temperatures of 22/18° C.

TIR1/auxin/IAA complex = test: surface plasmon resonance (SPR) binding assay; set-up: species or system Sisymbrium orientale; conditions: mutant IAA2Δ27 peptide vs IAA2 wild-type; compound 50 μM
Excerpt: In short, this assay measures the binding of auxin and IAA to the receptor protein TIR1 and their unbinding.
Surface plasmon resonance (SPR) experiments were done according to published protocols. TIR1/AFBS was expressed in insect cell culture using a recombinant baculovirus. The construct contained sequences for three affinity tags, namely 6 His, maltose-binding protein (MBP) and FLAG. Initial purification using the His tag was followed by clean-up using FLAG chromatography, the purified protein was used for SPR assays by passing it over a streptavidin chip loaded with biotinylated IAA2/IAA7 degron peptides.
The SPR buffer was Hepes-buffered saline with 10 mM Hepes, 3 mM EDTA, 150 mM NaCl and 0.05% Tween 20. Compounds to be tested were premixed with the protein to a final 50 μM concentration. Binding experiments were run at a flow rate of 30 μl min^−1 using 2.0 min of injection time and 4.0 min of dissociation time. Data from a control channel (mIAA7) and from a buffer+DMSO-only run were subtracted from each sensogram following the standard double reference subtraction protocol.

IAA2 expression = IAA2 expression by Q-PCR after auxin treatment of seedlings; type: in vivo, Sisymbrium orientale; conditions: for increase of IAA2 expression compared to untreated plants and DMSO control: 2 hr exposure
Protocol: To study IAA2 expression under auxin treatments sterilized seeds from F5 RILs for each phenotype were planted in half MS and grown until expanded cotyledon stage (size was about 2 cm from root to cotyledon tips). […] After exposure plants were collected into 2 ml centrifuge tubes and frozen in liquid nitrogen. RNA was extracted using Direct-zol RNA Microprep from Zymo research, DNAase treatment was done using DNaseI from Invitogen—ThermoFisher and cDNA was generated using iScript™ according to each manufacture protocol. Q-PCR (CFX Connect™ Real-Time PCR Detection System thermal cycler, BioRad, Hercules, Calif.) was used to determine IAA2 expression. The qPCR reaction contained 12.5 μl of SYBR Green (PerfeCTa SYBR Green FastMix), 1 μl each of forward and reverse primers (5 μM), and 1 uL of cDNA for a final reaction volume of […] parameters were 50° C. for 2 min, 95° C. for 10 min, and 40 cycles of 95° C. for 30 s and 60° C. for 1 min. Relative expression quantification was calculated by Expression=2^ΔCt, where ΔCT=CT(average of Actin2 and Cyclophilin)−CT(IAA2). Each biological sample was run in two technical replicates.

Arabidopsis root growth = test: root growth assay, transformed Arabidopsis; type: in vivo, Arabidopsis thaliana; conditions: for root growth tolerance compared with null vector or wild type gene: Arabidopsis transformed with mutant S. orientale IAA2Δ27; for root growth response: Arabidopsis transformed with the null vector
Protocol: as §1

[2] = tested on: Arabidopsis thaliana (Col-0); test: 2,4-D spray of transformed Arabidopsis; type: in vivo; conditions: 200 g a.i. ha^-1
Protocol: Arabidopsis transformation was performed based on established protocols with modifications. IAA2 alleles were amplified by PCR from cDNA generated from RNA extracts of homozygous R and S F5 lines (cross A). RNA was extracted using Direct-zol RNA Miniprep Plus Kit (Zymo). cDNA synthesis was performed using oligo(dT)20 primers from SuperScript™ II Reverse Transcriptase (Invitrogen). Wild-type and mutant alleles were amplified by PCR using PrimeSTAR HS Premix (Takara), using primers linked with restriction enzyme sites for cloning. Purified PCR amplicons were ligated into the pGEM-T Easy Vector (Promega), transformed into E. coli, sequenced by Sanger sequencing, and digested using the restriction sites AscI and BamHI (New England BioLabs). The digested product was then ligated into the binary vector pFGC5941 and cloned into Agrobacterium tumefaciens (strain GV3101). For plant transformation, Agrobacterium 400 mL liquid cultures were incubated at 28 C overnight and after centrifugation, resuspended in a 300 mL transformation solution (5% sucrose and 0.02% Silwet L-77). Each allele of IAA2 was transformed into Arabidopsis thaliana (Col-0) by floral dip and grown to seed production.
For transformant selection, 40 mg of transformed seeds for each IAA2 allele were cleaned with bleach solution (12.5%) and plated at half MS selective media with Cefotaxime (200 mg/L) and glufosinate-ammonium (7.5 mg/L). After two weeks, positive transformants were transferred to a second selective plate with half MS, Cefotaxime (100 mg/L) and glufosinate-ammonium (5 mg/L). After selection, potential transformants were transferred to soil and grown until seed production. For T2 selection, 36 seeds were cleaned and grown on half MS and glufosinate-ammonium (5 mg/L) media. T3 homozygous plants containing just one copy of the T-DNA vector were selected and IAA2 expression was analyzed using the same primers from mustard expression assay (see below), AtCyclophilin and AtActin2 were used as normalization genes. […]

[3] = tested on: S. orientale populations from Southern Australia; test: single-rate 2,4-D resistance screen of S. orientale populations; type: in vivo, Sisymbrium orientale; conditions: eight populations; 250 g ha^-1 2,4-D at 4-leaf stage; leaf curl 48 h, confirmed 21 days
Protocol: The presence of IAA2Δ27 in other 2,4-D resistant populations of S. orientale was also investigated. Seeds of S. orientale populations were germinated by sowing directly onto the soil surface of seedling trays containing standard potting mix. Once emerged, seedlings were transplanted into 9.5×8.5×9.5 cm punnet pots and grown outdoors at the Waite Campus, University of Adelaide, Australia. At the 4-leaf stage, plants were treated with a single rate of 250 g. a. ha^−1 2,4-D (2,4-D amine 650, FMC) to screen for resistance. Herbicide was applied using a laboratory moving boom pesticide applicator and applied at an equivalent of 109 L ha−1 of water at a pressure of 250 kPa and a speed of 1 m s−1 using Tee-Jet 001 nozzles (Tee-Jet 8001E; Spraying Systems Co., Wheaton, Ill.). Leaf curl was assessed 48 h after treatment, with any plants showing signs of leaf curl considered susceptible and tissue harvested, while the remaining plants were considered resistant and allowed to grow for a further 21 days to confirm resistance and tissue subsequently harvested.

[4] = tested on: Sisymbrium orientale PB-R1 plants; conditions: PB-R1 plants vs Roseworthy S plants; cited from earlier work
[5] = tested on: S. orientale F3 plants (cross B); test: progeny test segregation analysis, visual injury after 2,4-D spray; type: in vivo, Sisymbrium orientale; conditions: 200 gai ha^-1 2,4-D, 28 days after treatment
Protocol: A progeny test segregation analysis was performed on 219 F3 plants derived from self-pollination of a heterozygous F2 individual from cross B, identified via progeny test due to segregation of 2,4-D resistance in the F3 progeny. Plants were sprayed with 200 gai ha^−1 2,4-D at the 5 true leaf stage. Damage percentage was evaluated at 28 days after treatment. Leaf tissue was harvested and genomic DNA was extracted by CTAB. A KASP assay was performed with primers and methods as described above. To further test the co-segregation between the resistant phenotype and IAA2Δ27, nine each of R and S RILs from cross A and three each of R and S RILs from cross B were genotyped using the KASP assay. Two individuals were genotyped from each RIL.

[6] = Arabidopsis transformed with wild type S. orientale IAA2

Compound	root growth tolerance [1]	association of the herbicide/IAA/TIR1 complex (Ka) (TIR1/auxin/IAA complex)	dissociation of the herbicide/IAA/TIR1 complex (Kd) (TIR1/auxin/IAA complex)	increase of IAA2 expression compared to untreated plants and DMSO control (IAA2 expression; R seedlings)	increase of IAA2 expression compared to untreated plants and DMSO control (IAA2 expression; S seedlings)	relative expression (RE) of IAA2 (IAA2 expression; treated resistant plants)	relative expression (RE) of IAA2 (IAA2 expression; treated susceptible plants)	root growth tolerance compared with null vector or wild type gene (Arabidopsis root growth)	root growth response (Arabidopsis root growth)	fold more resistant compared to S plants [4]	further results
COc1c(Cl)ccc(-c2nc(C(=O)OCc3ccccc3)c(Cl)c(N)c2F)c1F [Rinskor (florpyrauxifen-benzyl), florpyrauxifen-benzyl]	confers resistance	–	–	–	–	–	–	–	–	–	root growth tolerance ([1]; listed as fluorpyrauxifen-benzyl): higher tolerance
O=C(O)Cc1c[nH]c2ccccc12 [IAA, indoleacetic acid]	–	slower association	more rapid dissociation; also recorded: faster	9.5 fold	7 fold	0.62	1	higher tolerance; also recorded: confers resistance	–	–	–
O=C(O)c1nc(Cl)ccc1Cl [Clopyralid]	–	–	–	–	–	–	–	higher tolerance; also recorded: confers resistance	–	–	–
COc1c(Cl)ccc(Cl)c1C(=O)O [Dicamba]	–	slower association	more rapid dissociation; also recorded: faster	–	–	–	–	higher tolerance; also recorded: confers resistance	susceptible to inhibition	–	root growth response compared with the null vector (Arabidopsis root growth; [6]): slightly more tolerant
O=C(O)COc1ccc(Cl)cc1Cl [2,4-D, 2,4-dichlorophenoxyacetic acid]	–	slower association	more rapid dissociation; also recorded: faster	2.5 fold	4 fold	0.16	0.55	higher tolerance; also recorded: confers resistance	susceptible to inhibition	22 fold	response to herbicide treatment ([2]; Arabidopsis transformed with S. orientale IAA2Δ27): resistant; response to herbicide treatment [2, 6]: susceptible; also recorded: sensitive; response to herbicide treatment ([2]; wild type Arabidopsis): susceptible; also recorded: sensitive; populations identified as resistant [3]: four identified as resistant; effect of treatment on IAA2 expression (FIG. 7) (IAA2 expression; S): increases IAA2 expression; average injury ([5]; heterozygous plants): 24%; injury ([5]; homozygous resistant plants): 12%; visual injury ([5]; sensitive plants homozygous for IAA2WT): 70%
Cc1cc(Cl)ccc1OCC(=O)O [MCPA]	higher tolerance; also recorded: confers resistance	–	–	–	–	–	–	–	–	20 fold	–

Source: US12252697B2 (priority 2019, dated 2025)
